Columns and labels:
K562 = experiment: cells; conditions: Homo sapiens, K562, 72 h
Description: Antiproliferative activity against FLT3-independent human K562 cells assessed as inhibition of cell growth incubated for 72 hrs by resazurin dye based fluorescence analysis

MV4-11 = experiment: Antiproliferative activity against human MV4-11 cells harboring homozygous FLT3-ITD mutant assessed as inhibition of cell growth incubated for 72 hrs by resazurin dye based fluorescence analysis; type: functional
[1] = target: Receptor-type tyrosine-protein kinase FLT3 (Homo sapiens, UniProt P36888, ITD); experiment: biochemical; type: cell-based, Sf9
MOLM-13 = experiment: cells; conditions: Homo sapiens, MOLM-13, 72 h

Chain of Receptor-type tyrosine-protein kinase FLT3 (P36888 whole entry, looked up, change not shown): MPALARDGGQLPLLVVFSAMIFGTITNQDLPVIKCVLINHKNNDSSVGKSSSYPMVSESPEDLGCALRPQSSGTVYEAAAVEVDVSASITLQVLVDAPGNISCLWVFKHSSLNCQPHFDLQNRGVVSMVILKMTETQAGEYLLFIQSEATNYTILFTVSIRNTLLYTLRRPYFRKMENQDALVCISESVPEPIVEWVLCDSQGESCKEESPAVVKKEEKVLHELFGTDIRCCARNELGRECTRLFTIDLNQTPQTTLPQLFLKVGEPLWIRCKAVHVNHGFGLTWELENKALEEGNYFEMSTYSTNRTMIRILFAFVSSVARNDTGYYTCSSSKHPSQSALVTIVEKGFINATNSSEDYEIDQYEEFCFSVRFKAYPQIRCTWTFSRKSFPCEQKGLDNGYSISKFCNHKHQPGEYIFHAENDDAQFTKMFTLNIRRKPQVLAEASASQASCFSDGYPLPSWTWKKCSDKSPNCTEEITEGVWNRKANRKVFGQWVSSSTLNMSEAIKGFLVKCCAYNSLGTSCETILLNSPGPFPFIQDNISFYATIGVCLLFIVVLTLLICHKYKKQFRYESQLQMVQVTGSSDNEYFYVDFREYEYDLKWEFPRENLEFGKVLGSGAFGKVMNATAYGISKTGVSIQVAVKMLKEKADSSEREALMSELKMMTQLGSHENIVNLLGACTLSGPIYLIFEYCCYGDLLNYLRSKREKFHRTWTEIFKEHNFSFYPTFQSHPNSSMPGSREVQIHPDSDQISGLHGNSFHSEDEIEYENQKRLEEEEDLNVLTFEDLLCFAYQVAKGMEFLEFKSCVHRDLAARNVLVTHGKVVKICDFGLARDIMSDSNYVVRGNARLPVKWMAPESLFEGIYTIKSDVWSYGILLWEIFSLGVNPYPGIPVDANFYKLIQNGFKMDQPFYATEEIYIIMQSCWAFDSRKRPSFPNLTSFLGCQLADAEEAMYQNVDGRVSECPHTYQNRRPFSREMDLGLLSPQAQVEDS

SMILES | GI50 (K562) [µM] | GI50 (MV4-11) [nM] | IC50 [1] [nM] | GI50 (MOLM-13) [nM]
O=C(Nc1ccccc1)Nc1nnc(Sc2ncnc3oc(-c4ccccc4)c(-c4ccccc4)c23)s1 | > 10 | 74 | 4 | 110
O=C(Nc1ccc(Cl)c(Cl)c1)Nc1nnc(Sc2ncnc3oc(-c4ccccc4)c(-c4ccccc4)c23)s1 | > 10 | 6190 | 455 | 8660
Cc1cccc(NC(=O)Nc2nnc(Sc3ncnc4oc(-c5ccccc5)cc34)s2)c1 | > 10 | 133 | 12 | 105
O=C(Nc1ccc(Cl)cc1)Nc1nnc(Sc2ncnc3oc(-c4ccccc4)cc23)s1 | > 10 | 430 | 9 | 297
Cc1cccc(NC(=O)Nc2nnc(Sc3ncnc4oc(-c5ccccc5)c(-c5ccccc5)c34)s2)c1 | > 10 | 115 | 10 | 120
COc1ccc(NC(=O)Nc2nnc(Sc3ncnc4oc(-c5ccc(OC)cc5)cc34)s2)cc1 | > 10 | 250 | 23 | 180
COc1ccc(-c2cc3c(Sc4nnc(NC(=O)Nc5ccccc5)s4)ncnc3o2)cc1 | > 10 | 96 | 16 | 117
O=C(Nc1ccc(Br)cc1)Nc1nnc(Sc2ncnc3oc(-c4ccccc4)c(-c4ccccc4)c23)s1 | > 10 | 396 | 55 | 723
O=C(Nc1nnc(Sc2ncnc3oc(-c4ccccc4)c(-c4ccccc4)c23)s1)Nc1ccccc1Br | > 10 | 290 | 4 | 427
O=C(Nc1ccc(Cl)cc1)Nc1nnc(Sc2ncnc3oc(-c4ccccc4)c(-c4ccccc4)c23)s1 | 9.87 | 342 | 16 | 452
O=C(Nc1cccc(Cl)c1)Nc1nnc(Sc2ncnc3oc(-c4ccccc4)c(-c4ccccc4)c23)s1 | > 10 | 362 | 14 | 404
COc1cccc(NC(=O)Nc2nnc(Sc3ncnc4oc(-c5ccccc5)cc34)s2)c1 | 9.46 | 120 | 17 | 79
Cc1ccc(NC(=O)Nc2nnc(Sc3ncnc4oc(-c5ccccc5)c(-c5ccccc5)c34)s2)cc1 | > 10 | 134 | 5 | 194
COc1ccc(-c2cc3c(Sc4nnc(NC(=O)Nc5ccc(Cl)cc5)s4)ncnc3o2)cc1 | > 10 | 1380 | 22 | 1140
O=C(Nc1cccc(F)c1)Nc1nnc(Sc2ncnc3oc(-c4ccccc4)c(-c4ccccc4)c23)s1 | > 10 | 145 | 4 | 650
COc1ccc(NC(=O)Nc2nnc(Sc3ncnc4oc(-c5ccccc5)c(-c5ccccc5)c34)s2)cc1 | > 10 | 61 | 5 | 83
Cc1ccc(NC(=O)Nc2nnc(Sc3ncnc4oc(-c5ccccc5)c(-c5ccccc5)c34)s2)cc1Cl | > 10 | > 10000 | > 5000 | > 10000
O=C(Nc1ccc(Cl)c(Cl)c1)Nc1nnc(Sc2ncnc3oc(-c4ccccc4)cc23)s1 | 9.83 | 1030 | 4 | 710
O=C(Nc1ccc(Cl)c(C(F)(F)F)c1)Nc1nnc(Sc2ncnc3oc(-c4ccccc4)cc23)s1 | > 10 | 910 | 3 | 1220
COc1ccc(-c2cc3c(Sc4nnc(NC(=O)Nc5ccc(Cl)c(C(F)(F)F)c5)s4)ncnc3o2)cc1 | > 10 | > 10000 | 55 | 5820
O=C(Nc1cccc(Cl)c1)Nc1nnc(Sc2ncnc3oc(-c4ccccc4)cc23)s1 | > 10 | 345 | 10 | 240
Cc1ccc(NC(=O)Nc2nnc(Sc3ncnc4oc(-c5ccccc5)cc34)s2)cc1Cl | 9.5 | 430 | 3 | 375
O=C(Nc1nnc(Sc2ncnc3oc(-c4ccccc4)c(-c4ccccc4)c23)s1)Nc1ccc(F)cc1F | > 10 | 169 | 6 | 164
COc1cccc(NC(=O)Nc2nnc(Sc3ncnc4oc(-c5ccccc5)c(-c5ccccc5)c34)s2)c1 | 9.95 | 86 | 4 | 185
O=C(Nc1ccc(Br)cc1)Nc1nnc(Sc2ncnc3oc(-c4ccccc4)cc23)s1 | > 10 | 1190 | 3 | 570
O=C(Nc1ccccc1)Nc1nnc(Sc2ncnc3oc(-c4ccccc4)cc23)s1 | > 10 | 165 | 38 | 87
COc1ccc(-c2cc3c(Sc4nnc(NC(=O)Nc5cccc(Cl)c5)s4)ncnc3o2)cc1 | > 10 | 1560 | 48 | 1060
O=C(Nc1ccc(Cl)c(C(F)(F)F)c1)Nc1nnc(Sc2ncnc3oc(-c4ccccc4)c(-c4ccccc4)c23)s1 | > 10 | 8300 | 1270 | > 10000
O=C(Nc1cccc(F)c1)Nc1nnc(Sc2ncnc3oc(-c4ccccc4)cc23)s1 | 7.96 | 337 | 56 | 190
